This note sets out measurements from paper PMC10998594, “Structural and mechanistic basis of the central energy-converting methyltransferase complex of methanogenesis” (Proceedings of the National Academy of Sciences of the …, 2024).

In this experiment the target is T1, MtrABCDEFG; Mtr(ABCDEFG)3; N5-methyl-tetrahydromethanopterin: coenzyme M methyltransferase core complex (Methanothermobacter marburgensis, UniProt P80183+P80185+P80186).
T1 construct: gene mtrE; native purification from M. marburgensis membranes (DDM/LMNG); trimer of MtrABCDEFG protomers, 430 kDa; MtrH not visible; soluble MtrA domain disordered, only MtrA 178-238 seen; printed lengths MtrB 100, MtrC 267, MtrD 233, MtrE 295, MtrF 68, MtrG 86; with Tetrahydromethanopterin S-methyltransferase subunit A; Tetrahydromethanopterin S-methyltransferase subunit B; Tetrahydromethanopterin S-methyltransferase subunit F; Tetrahydromethanopterin S-methyltransferase subunit G
As to the kind of experiment: cryo-EM structure, […] A. The format is binding. The note with it: 2 mM CoM, pH 7, 80 mM NaCl; site at wall of MtrCDE cavity (MtrE R113, N38; MtrC N188); two partially occupied conformations; putative assignment.

T1 sequence (P80183 whole entry, looked up, the tested form may be a part): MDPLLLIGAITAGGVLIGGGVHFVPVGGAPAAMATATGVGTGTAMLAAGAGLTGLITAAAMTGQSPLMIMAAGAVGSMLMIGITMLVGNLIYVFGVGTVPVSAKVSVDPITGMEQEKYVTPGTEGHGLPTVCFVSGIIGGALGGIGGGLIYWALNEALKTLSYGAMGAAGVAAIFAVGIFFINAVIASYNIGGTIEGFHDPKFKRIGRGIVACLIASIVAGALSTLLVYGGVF
T1 sequence (P80185 whole entry, looked up, the tested form may be a part): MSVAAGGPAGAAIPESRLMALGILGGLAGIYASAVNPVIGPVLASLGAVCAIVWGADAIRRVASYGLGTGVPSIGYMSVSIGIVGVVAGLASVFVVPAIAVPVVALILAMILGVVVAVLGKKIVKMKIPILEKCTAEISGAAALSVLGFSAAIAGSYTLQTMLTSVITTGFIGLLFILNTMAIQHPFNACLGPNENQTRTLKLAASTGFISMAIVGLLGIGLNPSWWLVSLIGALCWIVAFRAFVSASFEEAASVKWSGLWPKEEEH
T1 sequence (P80186 whole entry, looked up, the tested form may be a part): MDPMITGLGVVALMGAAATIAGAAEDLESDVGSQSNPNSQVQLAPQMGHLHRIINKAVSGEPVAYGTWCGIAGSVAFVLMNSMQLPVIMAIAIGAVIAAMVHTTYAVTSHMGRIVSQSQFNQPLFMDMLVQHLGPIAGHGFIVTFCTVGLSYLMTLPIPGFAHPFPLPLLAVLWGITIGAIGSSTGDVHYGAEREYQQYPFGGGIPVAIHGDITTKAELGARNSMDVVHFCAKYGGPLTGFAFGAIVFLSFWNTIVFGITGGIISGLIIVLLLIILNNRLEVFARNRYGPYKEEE

As to `O=S(=O)(O)CCS` [CoM], the “cryo-EM structure, 2.39 A” value is reported as “revealed the CoM binding site at the wall of the MtrCDE cavity”.
